Our source for the MIC values is US20170304409A1, “COMPOSITIONS USEFUL FOR THE PREVENTION AND/OR TREATMENT OF INFECTIONS AND INFLAMMATIONS” (ISTITUTO PROFILATTICO E FARMACEUTICO CANDIOLI & C. SPA in …, priority 2014, published 2017).

For this test, the system named is S. aureus ATCC 29213. Kind of test: In vitro susceptibility test, antimicrobial dilution method (CLSI), MIC. The settings on record: Staphylococcus aureus, ATCC29213, read-out: MIC (Minimum Inhibitory Concentration). It is filed as cell-based. The procedure: For all the tests performed, there was a positive control of antifungal activity using fluconazole (for Malassezia) and ceftriaxone (for the bacterial strains) and a negative control (absence of the compounds) wherein correct microbial growth was evaluated.

≈ marks a conversion by molar mass, not a printed value.

Regarding `C[C@@H]1O[C@@H](O[C@@H]2[C@@H](O)[C@H](OCCc3ccc(O)c(O)c3)O[C@H](CO)[C@H]2OC(=O)/C=C/c2ccc(O)c(O)c2)[C@H](O)[C@H](O)[C@H]1O` [Verbascoside, verbascoside], the MIC is 3000 µg/mL (≈ 4.8 mM).
